In ChEMBL document CHEMBL4266030, “Molecular Basis for Multiple Omapatrilat Binding Sites within the ACE C-Domain: Implications for Drug Design” (J Med Chem, 2018):
pIC50, pKi: −log10 of the molar value.

How the values were obtained:
[1] = target: T1, Angiotensin-converting enzyme (Homo sapiens, UniProt P12821); assay: Inhibition of human fully glycosylated ACE N-terminal domain expressed in CHO cells using Cbz-Phe-His-Leu as substrate preincubated for 15 mins followed by substrate addition measured after 10 mins by Morrison's plot analysis
[2] = target: T1, Angiotensin-converting enzyme; assay: Inhibition of human fully glycosylated ACE C-terminal domain expressed in CHO cells using Cbz-Phe-His-Leu as substrate preincubated for 15 mins followed by substrate addition measured after 10 mins by Morrison's plot analysis
[3] = target: T1, Angiotensin-converting enzyme; assay: Inhibition of human fully glycosylated ACE C-terminal domain expressed in CHO cells using MCA-RPPGFSAFK(Dnp)-OH as substrate preincubated for 15 mins followed by substrate addition measured after 10 mins by fluorescence spectrophotometric analysis
[4] = target: T1, Angiotensin-converting enzyme; assay: Inhibition of human fully glycosylated ACE N-terminal domain expressed in CHO cells using Cbz-Phe-His-Leu as substrate preincubated for 15 mins followed by substrate addition measured after 10 mins by fluorescence spectrophotometric analysis
[5] = target: T1, Angiotensin-converting enzyme; assay: Inhibition of human fully glycosylated ACE N-terminal domain expressed in CHO cells using MCA-RPPGFSAFK(Dnp)-OH as substrate preincubated for 15 mins followed by substrate addition measured after 10 mins by fluorescence spectrophotometric analysis
[6] = target: T1, Angiotensin-converting enzyme; assay: Inhibition of human fully glycosylated ACE C-terminal domain expressed in CHO cells using Cbz-Phe-His-Leu as substrate preincubated for 15 mins followed by substrate addition measured after 10 mins by fluorescence spectrophotometric analysis

T1 sequence (P12821 whole entry, the tested form may be a part): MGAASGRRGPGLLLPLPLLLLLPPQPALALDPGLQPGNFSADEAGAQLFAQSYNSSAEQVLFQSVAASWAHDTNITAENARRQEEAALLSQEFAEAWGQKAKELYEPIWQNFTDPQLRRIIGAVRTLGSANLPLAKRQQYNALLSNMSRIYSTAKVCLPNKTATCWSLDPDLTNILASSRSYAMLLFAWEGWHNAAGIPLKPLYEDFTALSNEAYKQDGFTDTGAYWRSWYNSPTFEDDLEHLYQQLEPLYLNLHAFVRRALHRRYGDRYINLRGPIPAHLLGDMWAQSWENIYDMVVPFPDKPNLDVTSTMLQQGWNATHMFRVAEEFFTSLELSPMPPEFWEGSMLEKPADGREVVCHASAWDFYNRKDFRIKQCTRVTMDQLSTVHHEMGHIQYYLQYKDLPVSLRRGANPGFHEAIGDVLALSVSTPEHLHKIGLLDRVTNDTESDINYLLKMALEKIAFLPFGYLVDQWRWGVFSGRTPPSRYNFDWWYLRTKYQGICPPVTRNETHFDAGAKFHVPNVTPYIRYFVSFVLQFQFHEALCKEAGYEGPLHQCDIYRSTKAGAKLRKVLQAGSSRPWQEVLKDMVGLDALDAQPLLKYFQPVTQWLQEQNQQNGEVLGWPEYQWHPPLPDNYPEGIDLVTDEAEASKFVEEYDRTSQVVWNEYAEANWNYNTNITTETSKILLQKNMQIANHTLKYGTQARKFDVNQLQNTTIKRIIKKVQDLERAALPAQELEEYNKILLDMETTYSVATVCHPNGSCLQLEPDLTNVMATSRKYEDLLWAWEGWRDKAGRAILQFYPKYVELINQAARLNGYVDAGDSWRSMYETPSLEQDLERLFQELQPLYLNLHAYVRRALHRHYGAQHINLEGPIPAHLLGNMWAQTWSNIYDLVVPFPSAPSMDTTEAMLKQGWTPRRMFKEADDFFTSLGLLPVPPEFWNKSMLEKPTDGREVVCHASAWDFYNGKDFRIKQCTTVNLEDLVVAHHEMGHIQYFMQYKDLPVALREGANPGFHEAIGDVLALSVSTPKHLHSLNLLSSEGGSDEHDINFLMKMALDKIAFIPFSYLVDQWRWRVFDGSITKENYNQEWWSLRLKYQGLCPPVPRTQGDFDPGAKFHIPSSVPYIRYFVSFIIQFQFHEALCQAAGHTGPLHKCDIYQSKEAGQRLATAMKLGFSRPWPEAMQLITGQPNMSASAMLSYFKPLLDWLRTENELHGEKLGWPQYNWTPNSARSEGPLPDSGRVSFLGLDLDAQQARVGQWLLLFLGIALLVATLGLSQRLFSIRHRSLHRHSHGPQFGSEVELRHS

| Structure (SMILES) | pKi [1] | pKi [2] | pIC50 [3] | pIC50 [4] | pIC50 [5] | pIC50 [6] |
| --- | --- | --- | --- | --- | --- | --- |
| O=C(N[C@H]1CCS[C@H]2CCC[C@@H](C(=O)O)N2C1=O)[C@@H](S)Cc1ccccc1 [OMAPATRILAT] | 10.82 | 10.80 | – | – | – | – |
| O=C(N[C@H]1CCS[C@H]2CCC[C@@H](C(=O)O)N2C1=O)[C@H](Cc1ccccc1)SS[C@@H](Cc1ccccc1)C(=O)N[C@H]1CCS[C@H]2CCC[C@@H](C(=O)O)N2C1=O | – | – | 5.74 | 5.66 | 5.68 | 5.55 |
